In patent US8278345B2, “Inhibitors of glutaminyl cyclase” (Probiodrug AG, priority 2006, dated 2012):
pIC50, pKi: −log10 of the molar value. Where two headings read alike, the source gives them in different places.

Tests used:
[1] = target: hQC (Homo sapiens, UniProt Q16769); experiment: Inhibitor assay for glutaminyl cyclase activity (fluorometric, H-Gln-βNA / H-Gln-AMC); type: biochemical
Summary of the method: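 Ki values came from fitting progress curves to a competitive inhibition model; rapid screens used 4 mM inhibitor with substrate at KM. QC activity was read at 30 °C via auxiliary pyroglutamyl aminopeptidase releasing βNA (0.2 mM H-Gln-βNA, 0.2 M Tris pH 8.0, 20 mM EDTA) or AMC (0.05 M Tris pH 8.0, 5 mM EDTA).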

[2] = compound from preparative synthesis, purified, read-out: IC50 hQC
[3] = compound from preparative synthesis, purified

hQC, sequence (Q16769 29-361): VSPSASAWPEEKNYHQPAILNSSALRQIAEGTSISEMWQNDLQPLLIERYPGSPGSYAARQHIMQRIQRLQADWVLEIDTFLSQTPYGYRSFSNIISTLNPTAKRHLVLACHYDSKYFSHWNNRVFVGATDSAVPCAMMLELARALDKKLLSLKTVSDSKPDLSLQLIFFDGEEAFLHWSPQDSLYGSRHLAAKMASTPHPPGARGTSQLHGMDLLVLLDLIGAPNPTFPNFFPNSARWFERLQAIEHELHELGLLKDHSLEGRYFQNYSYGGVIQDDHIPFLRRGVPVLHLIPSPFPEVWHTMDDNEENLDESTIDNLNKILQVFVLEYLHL

SMILES	melting point	pIC50 [1, 2]	pIC50 ([1]; read-out: IC50)	pKi [1, 3]
CC(=O)C1=C(O)C(=O)N(c2ccc3[nH]cnc3c2)C1c1cc(Br)ccc1F (stereo not drawn) [Compound 437, 4-Acetyl-1-(1H-benzoimidazol-5-yl)-5-(5-bromo-2-fluoro-phenyl)-3-hydroxy-1,5-dihydro-pyrrol-2-one]	195 °C	6.93	8.40	–
CC1=C(O)C(=O)N(c2ccc3[nH]cnc3c2)C1c1cc(F)c(F)cc1F (stereo not drawn) [Compound 469, 1-(1H-benzo[d]imidazol-5-yl)-5-(2,4,5-trifluorophenyl)-3-hydroxy-4-methyl-1H-pyrrol-2(5H)-one]	184 °C	–	6.63	7.27
O=C(C1=C(O)C(=O)N(c2ccc3[nH]cnc3c2)C1c1ccc2cccc(O)c2n1)C1CC1 (stereo not drawn) [Compound 446, 1-(1H-Benzoimidazol-5-yl)-4-cyclopropanecarbonyl-3-hydroxy-5-(8-hydroxy-quinolin-2-yl)-1,5-dihydro-pyrrol-2-one]	155 °C	8.87	8.40	–
CC1=C(O)C(=O)N(c2ccc3[nH]cnc3c2)C1c1cccc(Cl)c1Cl (stereo not drawn) [Compound 468, 1-(1H-benzo[d]imidazol-5-yl)-5-(2,3-dichlorophenyl)-3-hydroxy-4-methyl-1H-pyrrol-2(5H)-one]	162 to 174 °C	–	7.12	7.84

Continued by rising pIC50 ([1]; read-out: IC50), values first:

melting point	pIC50 [1, 2]	pIC50 ([1]; read-out: IC50)	pKi [1, 3]	SMILES
108 °C	7.49	8.40	–	O=C1C(O)=C(c2ccccc2)C(c2cnc3ccccc3c2)N1c1ccc2[nH]cnc2c1 (stereo not drawn) [Compound 420, 1-(1H-Benzoimidazol-5-yl)-3-hydroxy-4-phenyl-5-quinolin-3-yl-1,5-dihydro-pyrrol-2-one]
135 °C	7.52	8.40	–	CC(=O)C1=C(O)C(=O)N(c2ccc3[nH]cnc3c2)C1c1cccc(F)c1F (stereo not drawn) [Compound 350, 4-Acetyl-1-(1H-benzoimidazol-5-yl)-5-(2,3-difluoro-phenyl)-3-hydroxy-1,5-dihydro-pyrrol-2-one]
270 °C (dec.)	9.15	8.40	–	O=C(C1=C(O)C(=O)N(c2ccc3[nH]cnc3c2)C1c1ccc2nsnc2c1)C1CC1 (stereo not drawn) [Compound 287, 1-(1H-Benzoimidazol-5-yl)-5-benzo[c][1,2,5]thiadiazol-5-yl-4-cyclopropanecarbonyl-3-hydroxy-1,5-dihydro-pyrrol-2-one]
